Patent US10233189B2 (priority 2015, dated 2019)

Assay: Evaluation of stability in hepatic microsome
Format: in vitro ADME
Conditions: mouse hepatic microsome 0.25 mg/mL, 1 μM compound, 37° C., 30 minutes, NADPH-generating system

SMILES: Cc1ccc(-c2nn(C(C)(C)C)c3ncnc(N)c23)cc1 [Compound 4 of Comparative Examples, 1-(tert-butyl)-3-(p-tolyl)pyrazolo[3,4-d]pyrimidin-4-amine]
- percentage of the remaining tested compounds (remaining %): 0%
